Values belong to the molecule of their own block, whether it stands above or below them.
Assays:
Leishmania donovani [1] = test: Antileishmanial activity against Leishmania donovani MHOM/IN/1983/AG83 axenic amastigotes assessed as inhibition of growth at 20 uM incubated for 48 hrs by flow cytometric analysis relative to control; type: functional
[2] = Cytotoxicity against human THP-1 cells incubated for 72 hrs by DAPI staining based analysis; type: toxicity, cell-based
Leishmania donovani [3] = test: Antileishmanial activity against Leishmania donovani MHOM/IN/1983/AG83 axenic amastigotes assessed as inhibition of growth incubated for 48 hrs by flow cytometric analysis; type: functional, organism-based; conditions: MHOM/IN/1983/AG83, 48 h
[4] = Cytotoxicity against human HepG2 cells incubated for 48 hrs by PI staining based flow cytometric analysis; type: toxicity, cell-based
[5] = Cytotoxicity against human HepG2 cells assessed as inhibition of cell growth at 80 uM incubated for 48 hrs by PI staining based flow cytometric analysis relative to control; type: toxicity
[6] = Selectivity index, ratio of CC50 for cytotoxicity against human HepG2 cells to IC50 for antileishmanial activity against Leishmania donovani MHOM/IN/1983/AG83 axenic amastigotes; type: toxicity, cell-based; conditions: read-out: Ratio CC50/IC50
[7] = Lipophilicity, logD of compound in 1-octanol and phosphate buffer at pH 7.4 by HPLC-UV analysis; type: physicochemical; conditions: 1-octanol/phosphate buffer
[8] = Stability in human plasma assessed as compound remaining measured after 2 hrs by LC-MS/MS analysis; type: ADME, cell-free; conditions: read-out: Stability
[9] = Stability in mouse plasma assessed as compound remaining measured after 2 hrs by LC-MS/MS analysis; type: ADME, cell-free; conditions: read-out: Stability
[10] = Metabolic stability in human liver microsomes assessed as half-life preincubated for 10 mins and measured after 60 mins by LC-MS/MS analysis; type: ADME, Microsome
[11] = Metabolic stability in mouse liver microsomes assessed as half-life preincubated for 10 mins and measured after 60 mins by LC-MS/MS analysis; type: ADME, Microsome
[12] = Metabolic stability in human liver microsomes assessed as hepatic blood flow preincubated for 10 mins and measured after 60 mins by LC-MS/MS analysis; type: ADME, Microsome; conditions: read-out: QH
[13] = Metabolic stability in mouse liver microsomes assessed as hepatic blood flow preincubated for 10 mins and measured after 60 mins by LC-MS/MS analysis; type: ADME, Microsome; conditions: read-out: QH

Structure (SMILES): COc1cc2c(N3CCCCC3)nc(NCc3cccc(F)c3)nc2cc1OC1CCCC1
inhibition at 20 µM (Leishmania donovani [1]): ~40.8% | CC50 at 72 h [2]: > 3 µM

logD [7]: 4.64 | remaining at 2 h [8]: 61% | remaining at 2 h [9]: 44.3% | half-life [10]: 23.8 min | half-life [11]: 19.4 min | hepatic extraction ratio at 1 h [12]: 0.575 | hepatic extraction ratio at 1 h [13]: 0.494
Structure (SMILES): COc1cc2c(N3CCCCC3)nc(NC(=O)c3ccc(F)cc3)nc2cc1OC1CCCC1
IC50 (Leishmania donovani [3]): 5.43 µM | CC50 at 72 h [2]: 89.5 µM | CC50 at 48 h [4]: > 80 µM | inhibition at 48 h, 80 µM [5]: 10.8% | selectivity ratio [6]: > 15

Structure (SMILES): COc1cc2c(N3CCCCC3)nc(NCc3cccc(Cl)c3)nc2cc1OC1CCCC1
inhibition at 20 µM (Leishmania donovani [1]): ~12% | CC50 at 72 h [2]: 43.8 µM

Structure (SMILES): COc1cc2c(N3CCCCC3)nc(Nc3ccc(C(F)(F)F)cc3)nc2cc1OC1CCCC1
inhibition at 20 µM (Leishmania donovani [1]): ~35.3% | CC50 at 72 h [2]: > 50 µM

From ChEMBL document CHEMBL5512633, “Hit-to-lead optimization of 2-aminoquinazolines as anti-microbial agents against Leishmania donovani” (Eur J Med Chem, 2024)
